Test system: AIDV
Assay: Anti-retroviral activity against AIDV
Parameters: species or system AIDV (HTLV III)
Conditions: in words

Row | Structure (SMILES) | anti-retroviral activity, especially against AIDV
1 | O=C(O)/C=C/c1ccc(-c2nc3c(=O)n(Cc4ccccc4)c(=O)n(Cc4ccccc4)c3[nH]2)cc1 [Example 15, (E)-4-(1,3-dibenzyl-1,2,3,6-tetrahydro-2,6-dioxo-9H-purin-8 yl) cinnamic acid] | especially potent activity against AIDV

Biological target: T1, adenosine (purine) receptors (Cavia porcellus, UniProt P47745)
T1 construct: Ilea were removed from sacrificed guinea pigs; from tissue; host or cells: guinea pig ileum
T1 sequence (P47745 1-326): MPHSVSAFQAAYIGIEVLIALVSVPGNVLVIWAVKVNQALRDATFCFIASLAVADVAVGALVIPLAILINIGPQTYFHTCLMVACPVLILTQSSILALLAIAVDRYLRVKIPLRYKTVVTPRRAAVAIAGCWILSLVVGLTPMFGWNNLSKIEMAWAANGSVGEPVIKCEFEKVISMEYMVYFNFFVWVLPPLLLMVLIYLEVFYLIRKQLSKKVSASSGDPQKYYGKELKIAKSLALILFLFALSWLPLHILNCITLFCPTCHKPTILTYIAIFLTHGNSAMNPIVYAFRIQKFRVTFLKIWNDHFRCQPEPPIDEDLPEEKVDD
Assay: Guinea pig ileum twitch test: purine receptor antagonism against 2-chloroadenosine (Schild regression)
Conditions: agonist 2-chloroadenosine
Description: Accordingly, a representative number of compounds of the present invention were tested for their ability to antagonise the purine receptors using the guinea pig ileum test system.
Ilea were removed from sacrificed guinea pigs and placed in organ baths containing oxygenated Krebs-Henseleit buffer. After equilibration, the ilea were stimulated to contract (twitch contraction) using an electrical field-stimulus of 0.1 Hz, 0.05 ms duration and maximal voltage. Under these conditions, the twitch contraction results from the release of acetylcholine.
Concentration response curves to the purine agonist, 2-chloroadenosine, were determined first in the absence and then in the presnce of multiple concentrations of the compounds of the invention. One concentration of each compound was used per tissue. Quantification of purine receptor antagonism was accomplished using the Schild regression technique, i.e. plots of log (dose-ratio-l) vs log compound concentration, and the pA2 determined by regression of the data points to the x-intercept, where log (dose-ratio-l) is zero.

Row | Structure (SMILES) | pA2 guinea pig ileum (slope): slope of Schild regression
2 | CCCn1c(=O)c2nc(-c3ccc(/C=C/C(=O)O)cc3)[nH]c2n(CCC)c1=O [Example 6, (E)-4-(1,2,3,6-tetrahydro-2,6-dioxo-1,3-dipropyl-9H-purin-8-yl)cinnamic acid] | 0.9
3 | CCCn1c(=O)n(C)c(=O)c2nc(-c3ccc(/C=C/C(=O)O)cc3)[nH]c21 [Example 11, (E)-4-(1,2,3,6-tetrahydro-1-methyl-2,6-dioxo-3-propyl-9H-purin-8-yl)cinnamic acid] | 1.0
4 | CCCCn1c(=O)c2nc(-c3ccc(/C=C/C(=O)O)cc3)[nH]c2n(CCCC)c1=O [Example 14, (E)-4-(1,3-dibutyl-1,2,3,6-tetrahydro-2,6-dioxo-9H-purin-8-yl)cinnamic acid] | 1.0
5 | O=C(O)/C=C/c1ccc(-c2nc3c(=O)n(Cc4ccccc4)c(=O)n(Cc4ccccc4)c3[nH]2)cc1 [Example 15, (E)-4-(1,3-dibenzyl-1,2,3,6-tetrahydro-2,6-dioxo-9H-purin-8 yl) cinnamic acid] | 0.9
6 | Cn1c(=O)c2nc(-c3ccc(/C=C/C(=O)O)cc3)[nH]c2n(Cc2ccccc2)c1=O [Example 18, (E)-4-(3-benzyl-1,2,3,6-tetrahydro-1-methyl-2,6-dioxo-9H-purin-8-yl) cinnamic acid] | 0.9
7 | CC(C)Cn1c(=O)c2nc(-c3ccc(/C=C/C(=O)O)cc3)[nH]c2n(CC(C)C)c1=O [Example 19, (E)-4-(1,2,3,6-tetrahydro-1,3-diisobutyl-2,6-dioxo-9H-purin-8-yl) cinnamic acid] | 1.0

Source: patent publication US5017577A, “Methods for treating viral infection” (Burroughs Wellcome Co., priority 1989, dated 1991)
